In patent publication US11150251B2, “Bi-functional arginine-glycine-aspartic acid (RGD) peptides and methods to promote angiogenesis” (Clemson University Research Foundation, priority 2016, dated 2021):
Entries after “also recorded” stand apart in the source; their conditions may differ. Ends that are not written are not given here. * marks the point of attachment. Meth = methacrylated, methacrylate group attached (2-isocyanatoethyl methacrylate used), C=C(C)C(=O)OCCNC(=O)*

What was measured:
hADSCs = assay: hADSC adhesion on peptide-functionalized PEGDA-700 hydrogel microarray (peptide function validation, glycine linker length); format: cell-based, human; settings: for adhesion of hADSCs on peptide-functionalized PEGDA-700 hydrogels: 15 mM peptide; for saturation number of attached hADSCs relative to MethRGDSP and MethG2RGDSP: saturated (maximum) number of attached cells, peptide 0.5-15 mM, 12 hours
Experimental: PEGDA and methacrylated peptides were mixed at varied peptide concentrations (i.e., 0.5, 1, 3, 6, 9, 12 and 15 mM) to prepare microarrayed hydrogels with different peptide concentrations. hADSCs were seeded onto the array and cultured for 12 hours.
All experiments were conducted using passage 5 (P5) hADSCs.

αvβ3 integrin = molecular target: T1, αvβ3 integrin (Homo sapiens, UniProt P05106+P06756); assay: Integrin antibody blocking of HUVEC adhesion on alginate surface, anti-integrin αvβ3; format: cell-based; settings: 2D peptide-functionalized alginate, anti-integrin αvβ3 1:100, 6 hours
T1 construct: endogenous in cells; host or cells: HUVEC
T1 sequence (P06756 31-889 limits assumed): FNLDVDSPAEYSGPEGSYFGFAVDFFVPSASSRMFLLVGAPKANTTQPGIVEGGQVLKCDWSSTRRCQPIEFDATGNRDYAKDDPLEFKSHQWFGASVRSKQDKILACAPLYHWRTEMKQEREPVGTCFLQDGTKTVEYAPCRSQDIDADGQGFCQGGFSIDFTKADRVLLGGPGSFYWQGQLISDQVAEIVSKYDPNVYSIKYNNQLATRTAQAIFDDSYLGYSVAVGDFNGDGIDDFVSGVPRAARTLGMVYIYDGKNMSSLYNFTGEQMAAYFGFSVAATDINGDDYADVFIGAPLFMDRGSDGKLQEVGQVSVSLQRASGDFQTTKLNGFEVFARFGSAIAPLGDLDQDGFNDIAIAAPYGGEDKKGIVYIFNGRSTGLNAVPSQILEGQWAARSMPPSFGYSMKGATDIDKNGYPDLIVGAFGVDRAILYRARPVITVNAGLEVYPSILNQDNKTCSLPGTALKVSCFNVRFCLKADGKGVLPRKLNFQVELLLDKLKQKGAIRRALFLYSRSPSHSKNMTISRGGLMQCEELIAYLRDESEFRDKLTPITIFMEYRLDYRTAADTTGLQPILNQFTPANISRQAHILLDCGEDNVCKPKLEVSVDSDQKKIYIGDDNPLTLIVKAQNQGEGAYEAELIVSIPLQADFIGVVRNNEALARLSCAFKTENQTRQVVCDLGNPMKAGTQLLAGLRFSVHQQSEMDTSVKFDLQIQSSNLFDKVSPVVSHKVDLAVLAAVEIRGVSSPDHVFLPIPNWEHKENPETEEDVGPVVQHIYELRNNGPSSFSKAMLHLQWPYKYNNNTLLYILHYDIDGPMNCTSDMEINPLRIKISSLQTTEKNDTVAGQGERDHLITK
T1 sequence (P06756 891-1048 partner limits assumed): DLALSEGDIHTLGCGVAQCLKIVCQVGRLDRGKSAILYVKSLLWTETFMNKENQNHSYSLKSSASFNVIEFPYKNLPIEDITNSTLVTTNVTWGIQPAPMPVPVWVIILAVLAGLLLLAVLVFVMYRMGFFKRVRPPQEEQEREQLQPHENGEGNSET
T1 sequence (P05106 27-788): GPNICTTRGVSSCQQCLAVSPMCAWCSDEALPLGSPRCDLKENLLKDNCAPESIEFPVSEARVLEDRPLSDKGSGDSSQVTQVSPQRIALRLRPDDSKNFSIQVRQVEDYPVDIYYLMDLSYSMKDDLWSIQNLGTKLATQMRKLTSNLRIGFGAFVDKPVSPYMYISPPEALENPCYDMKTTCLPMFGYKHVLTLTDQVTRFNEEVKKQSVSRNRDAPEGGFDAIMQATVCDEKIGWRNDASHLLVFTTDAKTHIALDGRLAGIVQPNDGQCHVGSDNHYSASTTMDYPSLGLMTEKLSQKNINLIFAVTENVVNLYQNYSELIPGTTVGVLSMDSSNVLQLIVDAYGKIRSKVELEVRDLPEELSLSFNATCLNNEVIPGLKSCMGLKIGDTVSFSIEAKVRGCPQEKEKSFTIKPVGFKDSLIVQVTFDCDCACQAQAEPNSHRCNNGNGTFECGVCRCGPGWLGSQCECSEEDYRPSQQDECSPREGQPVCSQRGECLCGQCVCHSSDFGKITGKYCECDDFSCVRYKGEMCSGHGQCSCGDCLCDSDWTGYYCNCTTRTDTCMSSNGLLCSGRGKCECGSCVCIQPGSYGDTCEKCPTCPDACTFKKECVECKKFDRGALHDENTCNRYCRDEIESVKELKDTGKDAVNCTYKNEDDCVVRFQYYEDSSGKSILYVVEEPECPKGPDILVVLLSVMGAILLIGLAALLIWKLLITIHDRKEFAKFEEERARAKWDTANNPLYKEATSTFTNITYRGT
Experimental: (§1) The integrin antibodies and their combinations (no antibody, anti VLA-6 only, anti-integrin αvβ3 only and anti VLA-6+ anti-integrin αvβ3,) were aliquot into predesigned ratio (final ratios in the mixture: 1:20 for anti VLA-6, 1:100 for anti-integrin αvβ3) with PBS, respectively. The HUVECs were incubated with these antibodies for 15 min, sedimented by low speed centrifugation, suspended in 100 μl of serum-free MEM plus 0.02% BSA and then added into the 1% alginate gel coated wells. The wells were transferred into incubator for 6 hours. After that, unattached cells were rinsed from the wells and the attached cells were then fixed and stained with DAPI for cell number counting and phalloidin for F-actin.

HUVECs [1] = assay: HUVEC culture in 3D peptide-functionalized alginate hydrogels (spreading, proliferation, network formation); format: cell-based, human; settings: 1% alginate, 10% (w/w) peptide, 6 million HUVECs/ml, 2 days culture
Experimental: The Ca2+ containing substrates for alginate crosslinking was prepared as the previous literature mentioned. Alginate modified with these peptides (RGDS (SEQ ID NO:35), RGDSP (SEQ ID NO:33) and α1-peptide, respectively) was dissolved into HUVECs culturing media to prepare 1% alginate solution. […] mixture of the alginate and HUVECs was transferred into each well in 96 well plates (3 replicates for each peptide). The alginate was left gelling for 40 min. Then the well plates were transferred into incubator for 10 min to melt the Ca2+ containing substrates. After Ca2+ containing substrates get removed, HUVEC culturing media was added into each well and continue culture for additional two days. Media were changed every day. The cells were then fixed and stained with DAPI for cell number counting and phalloidin for F-actin to estimate cell spreading at day 0 and day 2. The fluorescent pictures were taken by a Leica TCS SP5 AOBS confocal microscope system. The total tubule length and the proliferation rates were measured.

VLA-6 and αvβ3 integrin = assay: Integrin antibody blocking of HUVEC adhesion on alginate surface, anti VLA-6 + anti-integrin αvβ3; format: cell-based, human; settings: for decrease in HUVEC adhesion when both VLA-6 and αvβ3 integrin are blocked: 2D peptide-functionalized alginate, both antibodies, 6 hours; for integrin binding concluded from blocking experiments: HUVECs on peptide-functionalized alginates
Experimental: as §1

VLA-6 integrin = molecular target: T2, VLA-6 integrin (Homo sapiens, UniProt P05556+P23229); assay: Integrin antibody blocking of HUVEC adhesion on alginate surface, anti VLA-6; format: cell-based; settings: 2D peptide-functionalized alginate, anti VLA-6 1:20, 6 hours
T2 construct: endogenous in cells; host or cells: HUVEC
T2 sequence (P23229 24-938 limits assumed): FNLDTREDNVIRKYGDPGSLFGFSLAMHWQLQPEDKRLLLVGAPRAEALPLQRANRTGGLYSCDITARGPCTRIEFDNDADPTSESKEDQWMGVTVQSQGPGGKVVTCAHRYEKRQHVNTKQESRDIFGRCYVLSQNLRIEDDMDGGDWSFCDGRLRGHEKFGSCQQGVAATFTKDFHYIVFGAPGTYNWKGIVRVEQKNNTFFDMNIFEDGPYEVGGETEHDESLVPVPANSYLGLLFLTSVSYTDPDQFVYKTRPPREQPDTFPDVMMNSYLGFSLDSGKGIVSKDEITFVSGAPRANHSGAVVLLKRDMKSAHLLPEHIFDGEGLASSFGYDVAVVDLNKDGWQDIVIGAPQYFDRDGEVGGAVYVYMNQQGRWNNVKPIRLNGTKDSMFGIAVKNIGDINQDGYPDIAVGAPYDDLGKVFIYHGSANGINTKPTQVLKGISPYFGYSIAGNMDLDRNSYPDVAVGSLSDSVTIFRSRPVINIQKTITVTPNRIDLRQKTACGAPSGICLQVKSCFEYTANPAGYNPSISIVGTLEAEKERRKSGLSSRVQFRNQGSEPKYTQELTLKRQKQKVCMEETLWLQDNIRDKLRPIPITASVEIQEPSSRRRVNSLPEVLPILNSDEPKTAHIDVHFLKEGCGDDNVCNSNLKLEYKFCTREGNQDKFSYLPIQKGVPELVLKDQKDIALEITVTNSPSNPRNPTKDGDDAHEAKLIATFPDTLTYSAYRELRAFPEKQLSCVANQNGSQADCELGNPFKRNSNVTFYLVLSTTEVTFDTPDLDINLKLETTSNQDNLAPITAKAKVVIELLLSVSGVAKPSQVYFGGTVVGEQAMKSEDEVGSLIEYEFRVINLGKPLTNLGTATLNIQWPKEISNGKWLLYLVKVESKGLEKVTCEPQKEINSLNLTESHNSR
T2 sequence (P23229 942-1130 partner limits assumed): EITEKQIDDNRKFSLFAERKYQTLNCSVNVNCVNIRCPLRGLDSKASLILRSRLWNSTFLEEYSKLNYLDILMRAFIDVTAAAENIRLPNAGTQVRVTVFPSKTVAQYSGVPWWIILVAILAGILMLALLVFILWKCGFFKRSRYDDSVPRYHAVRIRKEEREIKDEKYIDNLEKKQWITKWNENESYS
T2 sequence (P05556 21-798): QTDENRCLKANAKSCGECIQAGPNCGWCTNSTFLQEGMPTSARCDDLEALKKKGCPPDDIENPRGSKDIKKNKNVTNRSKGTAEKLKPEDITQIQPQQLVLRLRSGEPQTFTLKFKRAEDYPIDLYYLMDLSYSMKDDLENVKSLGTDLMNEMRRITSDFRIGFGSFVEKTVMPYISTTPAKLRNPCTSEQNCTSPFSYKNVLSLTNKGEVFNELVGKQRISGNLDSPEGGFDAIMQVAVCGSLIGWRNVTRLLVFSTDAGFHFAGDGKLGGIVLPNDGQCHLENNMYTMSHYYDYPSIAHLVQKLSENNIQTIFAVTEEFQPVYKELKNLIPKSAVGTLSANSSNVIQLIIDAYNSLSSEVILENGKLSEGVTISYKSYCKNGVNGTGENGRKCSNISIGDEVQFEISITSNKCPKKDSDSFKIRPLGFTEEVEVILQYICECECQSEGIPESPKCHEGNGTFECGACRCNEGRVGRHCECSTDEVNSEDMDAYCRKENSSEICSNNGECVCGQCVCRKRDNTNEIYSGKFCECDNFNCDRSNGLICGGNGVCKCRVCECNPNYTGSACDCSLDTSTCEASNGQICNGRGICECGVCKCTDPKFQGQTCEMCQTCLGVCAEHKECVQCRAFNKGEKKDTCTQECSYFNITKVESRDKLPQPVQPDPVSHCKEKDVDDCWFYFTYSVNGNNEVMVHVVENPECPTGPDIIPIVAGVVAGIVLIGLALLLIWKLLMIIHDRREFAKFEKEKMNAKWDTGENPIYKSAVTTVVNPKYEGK
Experimental: as §1

[2] = system: VLA-6 (α6) and αvβ3 integrin subunits; settings: cited from earlier work
KDR (VEGFR2) = assay: RT-PCR of VEGFR2 mRNA in HUVECs in 3D peptide-modified alginate gel; format: cell-based, human; settings: HUVECs in 3D peptide-functionalized alginate hydrogels, 6 hours culture
Experimental: Before PCR experiments, HUVECs were seeded in three different peptides (RGDS (SEQ ID NO:35), RGDSP (SEQ ID NO:33) and α1-peptide, respectively) modified 1% alginate gel. The cells were cultured for 6 hrs and then harvest for RNA isolation. Total RNA was isolated according to the kit and protocol of an RNeasy Micro Kit (Qiagen, Vinlo, Netherlands) with the addition of the QIAShredder (Qiagen) during the homogenization step for HUVECs. For each group, around 0.1 million cells were used for RNA isolation. At least 25 ng of total RNA for each group was used for cDNA synthesis by the Bio-Rad (Hercules, USA) iScript cDNA synthesis kit. qRT-PCR was executed with “best coverage” validated Taqman primers (Life Technologies, Carlsbad, USA) in 10 μl reactions for the following genes: KDR (VEGFR2), ACTB, GAPDH. qRT-PCR Data was normalized as the change in cycle threshold (dCt) from the geometric mean of ACTB and GAPDH expression. Expression was analyzed using mRNA expression=2^(−(dCt)) and then normalized to the gene expression from RGDS (SEQ ID NO:35) samples.

HUVECs (EC integrin) = assay: HUVEC adhesion on RGD peptide-functionalized PEG hydrogel microarray; format: cell-based, human; settings: for affinity to HUVECs / HUVEC adhesion on PEG hydrogel microarray: 12 hours culture
Experimental: Methacrylated peptides (shown in FIG. 7) were dissolved in DMF at pre-designated ratios (1 mM, 3 mM, 6 mM, 9 mM, 12 mM, 15 mM and 20 mM) and mixed with PEGDA (containing 1% DMPA as initiator) (DMF solution of methacrylated peptide: PEGDA=1:1 (v/v)) and then transferred into a 384 well plate for microarray fabrication. The microarrays were printed in a humid Ar-atmosphere on epoxy monolayer-coated glass slides (Xenopore XENOSLIDE E, Hawthorne, N.J.) which were first dip-coated in 4 v/v % poly(hydroxyethyl methacrylate) (i.e., poly(HEMA)) using a customized microarrayer (Biodot). Spots were polymerized via 10 s exposure to long wave UV (365 nm), dried at <50 mtorr for at least 7 days. Before use, the chips were sterilized by UV for 30 min for each side, and then washed with PBS twice for 15 min to remove residual monomer or solvent. HUVECs (human umbilical vein endothelial cells from Lonza, Basel, Switzerland) were seeded onto the array and cultured for 12 hours. They were then fixed and stained with DAPI for cell number counting and phalloidin for F-actin to estimate cell spreading for the lead peptide identification.

hiPSC-CMs [3] = assay: Sarcomere formation / alpha sarcomeric actinin expression of hiPSC-CMs on hydrogel microarray; format: cell-based, human; settings: 15 mM peptide, 3 days culture
Experimental: (§2) PEGDA and methacrylated peptides were mixed at one fixed peptide concentration (15 mM) to prepare microarrayed hydrogels with a constant peptide concentration. hiPSC-CMs (human induced pluripotent stem cell-derived cardiomyocytes from Cellular Dynamics International, Madison, Wis., USA) were seeded onto the microarray and cultured for 3 days to facilitate the formation of sarcomere structures. hiPSC-CMs were stained with DAPI to approximate cell number and phalloidin for F-actin to estimate cell spreading. Sarcomere structure was examined by using immunofluorescence microscopy.
Briefly, hiPSC-CMs on the microarray were fixed with 4% PFA solution and blocked by 10% goat serum. […] Z-stacked Images collected from the microarray were analyzed by using the ImageJ (National Institutes of Health) for semi-quantitative analysis of the expression level of alpha sarcomeric actinin of hiPSC-CMs on the microarrays. The sarcomeric actinin expression level of hiPSC-CMs on each hydrogel spot was determined by the total fluorescence intensities of sarcomeric actinin staining divided by the total cell number on the hydrogel spot, which was then normalized to the blank PEG-700 hydrogel spots. […]

hiPSC-CMs [4] = assay: hiPSC-CM adhesion on RGD peptide-functionalized PEG hydrogel microarray; format: cell-based, human; settings: 15 mM peptide, 3 days culture, 18 replicates
Experimental: as §2
hiPSC-derived cardiomyocytes (iCell Cardiomyocytes, Cellular Dynamics International, Madison, Wis., USA) were cultured according to the manufacturer's protocol. Briefly, hiPSC-derived cardiomyocytes were plated on 0.1% gelatin coated 6-well plates in iCell Cardiomyocytes Plating Medium (Cellular Dynamics International) at a density of about 3×10^5 to 4.0×10^5 cells/well and incubated at 37° C. in 5% CO2 for 4 days. Two days after plating, the plating medium was removed and replaced with 4 mL of iCell Cardiomyocytes Maintenance Medium (Cellular Dynamics International). After 4 days of monolayer pre-culture, cells were detached using trypLE Express (Gibco Life Technologies, Grand Island, N.Y.) and seeded along with culture media on the hydrogel microarrays. […] Sarcomere structures were visualized using sarcomere actinin and troponin-I staining as described above.

HUVECs [5] = assay: HUVEC adhesion on 2D surface of peptide-modified alginate hydrogel; format: cell-based, human; settings: 10% (w/w) peptide, 1% alginate, versus RGDS
Experimental: The peptides were conjugated onto the oxidized alginate by the EDC-NHS chemistry as reported by Rowley: using aqueous carbodiimide reacted with peptides (RGDS (SEQ ID NO:35), RGDSP (SEQ ID NO:33) and α1-peptide) onto the oxidized alginate. In order to secure sufficient cell attachment, 10% (w/w) peptide modification was performed into the alginate hydrogel.
The Ca2+ containing substrates for alginate crosslinking was prepared according to the literature. 50 μl, 1% alginate modified with peptides (RGDS (SEQ ID NO:35), RGDSP (SEQ ID NO:33) and α1-peptide, respectively) aqueous solution was transferred into each well in 96 well plates (3 replicates for each peptide). The alginate was left gelling for 40 min. Then the well plates were transferred into incubator for 10 min to melt the Ca2+ containing substrates. After Ca2+ containing substrates get removed, HUVECs were seeded onto the hydrogel layers and cultured for 12 hours. Then they were fixed and stained with DAPI for cell number counting and phalloidin for F-actin to estimate cell spreading.

G4RDGSP: methacrylated scrambled sequence of G4RGDSP (Meth-GGGGRDGSP) [reference compound]
adhesion of hADSCs on peptide-functionalized PEGDA-700 hydrogels (hADSCs): no cell adhesion

MethG4RGDSP: methacrylated-RGDSP-peptide with 4 glycine linker (Meth-GGGGRGDSP)
adhesion of hADSCs on peptide-functionalized PEGDA-700 hydrogels (hADSCs): effectively promote adhesion of hADSCs | saturation number of attached hADSCs relative to MethRGDSP and MethG2RGDSP (hADSCs): about one-fold higher

RGDS [RGD peptide derived from Fn]
decrease in HUVEC adhesion when αvβ3 integrin is blocked (αvβ3 integrin): ~35% | HUVEC spreading, proliferation and network formation in 3D alginate hydrogel (HUVECs [1]): limited cell spreading and no visible network formation | decrease in HUVEC adhesion when both VLA-6 and αvβ3 integrin are blocked (VLA-6 and αvβ3 integrin): ~35% | integrin binding concluded from blocking experiments (VLA-6 and αvβ3 integrin): bind to αvβ3 integrin | decrease in HUVEC adhesion when VLA-6 integrin is blocked (VLA-6 integrin): does not significantly affect cell adhesion

CQAGTFALRGDNPQG [A99, similar Ln derived peptide]
integrin binding reported for A99 [2]: bind to both VLA-6 (α6) and αvβ3 integrin subunits

RGDSP [RGD peptide derived from Fn]
HUVEC spreading, proliferation and network formation in 3D alginate hydrogel (HUVECs [1]): limited cell spreading and no visible network formation | integrin binding concluded from blocking experiments (VLA-6 and αvβ3 integrin): bind to αvβ3 integrin | mRNA expression of VEGFR2 (KDR (VEGFR2)): significant higher amount of VEGFR2 mRNA expression | decrease in HUVEC adhesion when VLA-6 integrin is blocked (VLA-6 integrin): does not significantly affect cell adhesion | affinity to HUVECs / HUVEC adhesion on PEG hydrogel microarray (HUVECs (EC integrin)): significantly higher affinity to HUVECs than RGDS

PMQKMRGDVFSP [derived from Laminin subunit β4]
sarcomere formation / sarcomeric actinin expression of hiPSC-CMs (hiPSC-CMs [3]): greatest ability to promote hiPSC-CM adhesion and sarcomere formation; also recorded: most developed sarcomere structures | sarcomere formation / sarcomeric actinin expression of hiPSC-CMs (hiPSC-CMs [3]; listed as RGD (SEQ ID NO:36) peptide from laminin β4 subunit): highest sarcomeric actinin expression | hiPSC-CM adhesion / affinity to hiPSC-CMs (hiPSC-CMs [4]): greatest ability to promote hiPSC-CM adhesion; also recorded: substantial activities to support hiPSC-CM adhesion; also recorded: highest affinity to hiPSC-CMs

PQVTRGDVFTMP [RGD peptide from vitronectin, included as a control, reference compound]
hiPSC-CM adhesion / affinity to hiPSC-CMs (hiPSC-CMs [4]): moderate cell adhesion

DAVKQLQAAERGDA [derived from Laminin subunit α4]
hiPSC-CM adhesion / affinity to hiPSC-CMs (hiPSC-CMs [4]): substantial activities to support hiPSC-CM adhesion

TFALRGDNP [α1 peptide, RGD peptide derived from Ln α1 subunit]
HUVEC spreading, proliferation and network formation in 3D alginate hydrogel (HUVECs [1]): significantly enhanced cell proliferation and network formation | number of HUVECs attached to 2D surface of alginate hydrogel, higher than RGDS (HUVECs [5]): ~150% | decrease in HUVEC adhesion when both VLA-6 and αvβ3 integrin are blocked (VLA-6 and αvβ3 integrin): ~70% | integrin binding concluded from blocking experiments (VLA-6 and αvβ3 integrin): binds to both VLA-6 and αvβ3 integrin | mRNA expression of VEGFR2 (KDR (VEGFR2)): significantly up-regulated | affinity to HUVECs / HUVEC adhesion on PEG hydrogel microarray (HUVECs (EC integrin)): highest activities to promote HUVEC adhesion | saturated number of attached HUVECs, higher than RGDS (HUVECs (EC integrin); PEG hydrogel microarray, versus RGDS): ~500% | saturated number of attached HUVECs, higher than RGDSP (HUVECs (EC integrin); PEG hydrogel microarray, versus RGDSP): ~200%

SETQRGDVFVP [RGD peptide of the 12-peptide library, reference compound]
hiPSC-CM adhesion / affinity to hiPSC-CMs (hiPSC-CMs [4]): moderate cell adhesion

MethG6RGDSP: methacrylated-RGDSP-peptide with 6 glycine linker (Meth-GGGGGGRGDSP)
saturation number of attached hADSCs relative to MethRGDSP and MethG2RGDSP (hADSCs): about one-fold higher
